Key:
[1] = tested on: late watergrass; assay: Test Example 1: herbicidal activity, application before weed generation under submerged conditions (Table 16, symbol A); format: in vivo, late watergrass (Echinochloa oryzicola); settings: amount of applied herbicide 320 g/ha
Method in brief: (§1)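 Alluvial soil was flooded to 4 cm depth, weed seeds were sown mixed and 2.5-leaf rice seedlings were transplanted. On sowing day, the compound's emulsion, diluted in water to a set dose, was applied to the water surface. Plants grew at 25–30 °C and were scored 0–5 after three weeks.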

[2] = tested on: Japanese bulrush; assay: Test Example 1: herbicidal activity, application before weed generation under submerged conditions (Table 16, symbol B); format: in vivo, Japanese bulrush (Schoenoplectus juncoides); settings: amount of applied herbicide 320 g/ha
Method in brief: as §1

[3] = tested on: oval-leafed pondweed; assay: Test Example 1: herbicidal activity, application before weed generation under submerged conditions (Table 16, symbol C); format: in vivo, oval-leafed pondweed (Monochoria vaginalis); settings: amount of applied herbicide 320 g/ha
Method in brief: as §1

[4] = tested on: barnyard grass; assay: Test Example 3: herbicidal effect by foliage application, Wagner pot (Table 18, symbol H); format: in vivo, barnyard grass (Echinochloa crus-galli); settings: 320 g/ha
Method in brief: (§2)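 Plants were sown in alluvial soil held under 0.1–0.5 cm standing water and grown 14 days in a greenhouse at 25–30 °C. An emulsifiable formulation, water-diluted to the set dose, was then sprayed onto the foliage, and effects were scored three weeks later using previously defined criteria.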

[5] = tested on: Chinese sprangletop; assay: Test Example 3: herbicidal effect by foliage application, Wagner pot (Table 18, symbol D); format: in vivo, chinese sprangletop (Leptochloa chinensis); settings: 320 g/ha
Method in brief: as §2

[6] = tested on: rice flat sedge; assay: Test Example 3: herbicidal effect by foliage application, Wagner pot (Table 18, symbol E); format: in vivo, rice flat sedge (Cyperus iria); settings: 320 g/ha
Method in brief: as §2

[7] = tested on: southern crabgrass; assay: Test Example 4: herbicidal effect by soil treatment (Table 19, symbol F); format: in vivo, southern crabgrass (Digitaria ciliaris); settings: amount of applied herbicide 320 g/ha
Method in brief: (§3)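 Pre-emergence style soil spray: seeds under ~1.5 cm sterilized diluvial soil received a uniform coat of emulsion diluted to the predetermined herbicide amount. Greenhouse 25–30° C; readout at week three on previously defined criteria.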

[8] = tested on: green foxtail; assay: Test Example 4: herbicidal effect by soil treatment (Table 19, symbol G); format: in vivo, green foxtail (Setaria viridis); settings: amount of applied herbicide 320 g/ha
Method in brief: as §3

[9] = tested on: barnyard grass; assay: Test Example 4: herbicidal effect by soil treatment (Table 19, symbol H); format: in vivo, barnyard grass (Echinochloa crus-galli); settings: amount of applied herbicide 320 g/ha
Method in brief: as §3

[10] = tested on: wild oat; assay: Test Example 4: herbicidal effect by soil treatment (Table 19, symbol I); format: in vivo, wild oat (Avena fatua); settings: amount of applied herbicide 320 g/ha
Method in brief: as §3

[11] = tested on: blackgrass; assay: Test Example 4: herbicidal effect by soil treatment (Table 19, symbol J); format: in vivo, blackgrass (Alopecurus myosuroides); settings: amount of applied herbicide 320 g/ha
Method in brief: as §3

[12] = tested on: Italian ryegrass; assay: Test Example 4: herbicidal effect by soil treatment (Table 19, symbol K); format: in vivo, Italian ryegrass (Lolium multiflorum); settings: amount of applied herbicide 320 g/ha
Method in brief: as §3

[13] = tested on: windgrass; assay: Test Example 4: herbicidal effect by soil treatment (Table 19, symbol L); format: in vivo, windgrass (Apera spica-venti); settings: amount of applied herbicide 320 g/ha
Method in brief: as §3

[14] = tested on: velvetleaf; assay: Test Example 4: herbicidal effect by soil treatment (Table 19, symbol M); format: in vivo, velvetleaf (Abutilon theophrasti); settings: amount of applied herbicide 320 g/ha
Method in brief: as §3

[15] = tested on: redroot pigweed; assay: Test Example 4: herbicidal effect by soil treatment (Table 19, symbol N); format: in vivo, redroot pigweed (Amaranthus retroflexus); settings: amount of applied herbicide 320 g/ha
Method in brief: as §3

[16] = tested on: lambsquarters; assay: Test Example 4: herbicidal effect by soil treatment (Table 19, symbol O); format: in vivo, lambsquarters (Chenopodium album); settings: amount of applied herbicide 320 g/ha
Method in brief: as §3

[17] = tested on: chickweed; assay: Test Example 4: herbicidal effect by soil treatment (Table 19, symbol P); format: in vivo, common chickweed (Stellaria media); settings: amount of applied herbicide 320 g/ha
Method in brief: as §3

[18] = tested on: persian speedwell; assay: Test Example 4: herbicidal effect by soil treatment (Table 19, symbol R); format: in vivo, Persian speedwell (Veronica persica); settings: amount of applied herbicide 320 g/ha
Method in brief: as §3

[19] = tested on: southern crabgrass; assay: Test Example 5: herbicidal effect by foliage application, plastic box (Table 20, symbol F); format: in vivo, southern crabgrass (Digitaria ciliaris); settings: amount of applied herbicide 320 g/ha; foliage application after 14-day growth; evaluated three weeks after application
Method in brief: (§4)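 Plants were sown into sterilized diluvial soil under about 1.5 cm cover and kept in a greenhouse at 25° C. to 30° C. Fourteen days on, foliage received an even spray of the diluted emulsion. Herbicidal or crop effect was judged three weeks afterwards.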

[20] = tested on: green foxtail; assay: Test Example 5: herbicidal effect by foliage application, plastic box (Table 20, symbol G); format: in vivo, green foxtail (Setaria viridis); settings: amount of applied herbicide 320 g/ha; foliage application after 14-day growth; evaluated three weeks after application
Method in brief: as §4

[21] = tested on: barnyard grass; assay: Test Example 5: herbicidal effect by foliage application, plastic box (Table 20, symbol H); format: in vivo, barnyard grass (Echinochloa crus-galli); settings: amount of applied herbicide 320 g/ha; foliage application after 14-day growth; evaluated three weeks after application
Method in brief: as §4

[22] = tested on: wild oat; assay: Test Example 5: herbicidal effect by foliage application, plastic box (Table 20, symbol I); format: in vivo, wild oat (Avena fatua); settings: amount of applied herbicide 320 g/ha; foliage application after 14-day growth; evaluated three weeks after application
Method in brief: as §4

[23] = tested on: blackgrass; assay: Test Example 5: herbicidal effect by foliage application, plastic box (Table 20, symbol J); format: in vivo, blackgrass (Alopecurus myosuroides); settings: amount of applied herbicide 320 g/ha; foliage application after 14-day growth; evaluated three weeks after application
Method in brief: as §4

[24] = tested on: Italian ryegrass; assay: Test Example 5: herbicidal effect by foliage application, plastic box (Table 20, symbol K); format: in vivo, Italian ryegrass (Lolium multiflorum); settings: amount of applied herbicide 320 g/ha; foliage application after 14-day growth; evaluated three weeks after application
Method in brief: as §4

[25] = tested on: windgrass; assay: Test Example 5: herbicidal effect by foliage application, plastic box (Table 20, symbol L); format: in vivo, windgrass (Apera spica-venti); settings: amount of applied herbicide 320 g/ha; foliage application after 14-day growth; evaluated three weeks after application
Method in brief: as §4

[26] = tested on: velvetleaf; assay: Test Example 5: herbicidal effect by foliage application, plastic box (Table 20, symbol M); format: in vivo, velvetleaf (Abutilon theophrasti); settings: amount of applied herbicide 320 g/ha; foliage application after 14-day growth; evaluated three weeks after application
Method in brief: as §4

[27] = tested on: redroot pigweed; assay: Test Example 5: herbicidal effect by foliage application, plastic box (Table 20, symbol N); format: in vivo, redroot pigweed (Amaranthus retroflexus); settings: amount of applied herbicide 320 g/ha; foliage application after 14-day growth; evaluated three weeks after application
Method in brief: as §4

[28] = tested on: lambsquarters; assay: Test Example 5: herbicidal effect by foliage application, plastic box (Table 20, symbol O); format: in vivo, lambsquarters (Chenopodium album); settings: amount of applied herbicide 320 g/ha; foliage application after 14-day growth; evaluated three weeks after application
Method in brief: as §4

[29] = tested on: chickweed; assay: Test Example 5: herbicidal effect by foliage application, plastic box (Table 20, symbol P); format: in vivo, common chickweed (Stellaria media); settings: amount of applied herbicide 320 g/ha; foliage application after 14-day growth; evaluated three weeks after application
Method in brief: as §4

[30] = tested on: false cleavers; assay: Test Example 5: herbicidal effect by foliage application, plastic box (Table 20, symbol Q); format: in vivo, false cleavers (Galium spurium); settings: amount of applied herbicide 320 g/ha; foliage application after 14-day growth; evaluated three weeks after application
Method in brief: as §4

[31] = tested on: persian speedwell; assay: Test Example 5: herbicidal effect by foliage application, plastic box (Table 20, symbol R); format: in vivo, Persian speedwell (Veronica persica); settings: amount of applied herbicide 320 g/ha; foliage application after 14-day growth; evaluated three weeks after application
Method in brief: as §4

CCCC(=O)Oc1c(C)nn(C)c(=O)c1-c1c(-c2ccc(C)cc2)sc2cc(F)c(F)cc12 [5-004]
Herbicidal effect, A: late watergrass [1]: 2 (Herbicidal rate of 20% or more and less than 40%)
Herbicidal effect, B: Japanese bulrush [2]: 3 (Herbicidal rate of 40% or more and less than 70%)
Herbicidal effect, C: oval-leafed pondweed [3]: 0 (Herbicidal rate of 5% or less (almost no effect))
herbicidal effect on barnyard grass (H) [4]: 3 (Herbicidal rate of 40% or more and less than 70%)
herbicidal effect on Chinese sprangletop (D) [5]: 0 (Herbicidal rate of 5% or less (almost no effect))
herbicidal effect on rice flat sedge (E) [6]: 0 (Herbicidal rate of 5% or less (almost no effect))
F: southern crabgrass, herbicidal effect grade [7]: 0 (Herbicidal rate of 5% or less (almost no effect))
G: green foxtail, herbicidal effect grade [8]: 0 (Herbicidal rate of 5% or less (almost no effect))
H: barnyard grass, herbicidal effect grade [9]: 0 (Herbicidal rate of 5% or less (almost no effect))
I: wild oat, herbicidal effect grade [10]: 0 (Herbicidal rate of 5% or less (almost no effect))
J: blackgrass, herbicidal effect grade [11]: 0 (Herbicidal rate of 5% or less (almost no effect))
K: Italian ryegrass, herbicidal effect grade [12]: 0 (Herbicidal rate of 5% or less (almost no effect))
L: windgrass, herbicidal effect grade [13]: 0 (Herbicidal rate of 5% or less (almost no effect))
M: velvetleaf, herbicidal effect grade [14]: 0 (Herbicidal rate of 5% or less (almost no effect))
N: redroot pigweed, herbicidal effect grade [15]: 3 (Herbicidal rate of 40% or more and less than 70%)
O: lambsquarters, herbicidal effect grade [16]: 4 (Herbicidal rate of 70% or more and less than 90%)
P: chickweed, herbicidal effect grade [17]: 0 (Herbicidal rate of 5% or less (almost no effect))
R: persian speedwell, herbicidal effect grade [18]: 0 (Herbicidal rate of 5% or less (almost no effect))
Herbicidal effect by foliage application, F: southern crabgrass [19]: 0 (Herbicidal rate of 5% or less (almost no effect))
Herbicidal effect by foliage application, G: green foxtail [20]: 3 (Herbicidal rate of 40% or more and less than 70%)
Herbicidal effect by foliage application, H: barnyard grass [21]: 0 (Herbicidal rate of 5% or less (almost no effect))
Herbicidal effect by foliage application, I: wild oat [22]: 0 (Herbicidal rate of 5% or less (almost no effect))
Herbicidal effect by foliage application, J: blackgrass [23]: 0 (Herbicidal rate of 5% or less (almost no effect))
Herbicidal effect by foliage application, K: Italian ryegrass [24]: 1 (Herbicidal rate of 5% or more and less than 20%)
Herbicidal effect by foliage application, L: windgrass [25]: 1 (Herbicidal rate of 5% or more and less than 20%)
Herbicidal effect by foliage application, M: velvetleaf [26]: 3 (Herbicidal rate of 40% or more and less than 70%)
Herbicidal effect by foliage application, N: redroot pigweed [27]: 2 (Herbicidal rate of 20% or more and less than 40%)
Herbicidal effect by foliage application, O: lambsquarters [28]: 4 (Herbicidal rate of 70% or more and less than 90%)
Herbicidal effect by foliage application, P: chickweed [29]: 3 (Herbicidal rate of 40% or more and less than 70%)
Herbicidal effect by foliage application, Q: false cleavers [30]: 0 (Herbicidal rate of 5% or less (almost no effect))
Herbicidal effect by foliage application, R: persian speedwell [31]: 3 (Herbicidal rate of 40% or more and less than 70%)

Source: US20230085307A1, “PYRIDAZINONE COMPOUND AND HERBICIDE” (NISSAN CHEMICAL CORPORATION, priority 2019, published 2023)
